Our source for the Activity values is ChEMBL document CHEMBL1921764, “Substrate profiling of IGF-1R and InsR: identification of a potent pentamer substrate” (Bioorg Med Chem Lett, 2011).

Active and inactive are the calls of the source. The rule behind the calls is not given here. Peptide text beside a SMILES is read from it.

One experiment deals with Insulin-like growth factor 1 receptor (Homo sapiens) (UniProt P08069). As to the kind of experiment: Activity of pre-activated human GST-His6-tagged IGF-1R assessed as compound phosphorylation at 500 uM measured every 2 mins for 60 mins by ADP-Quest assay.
Insulin-like growth factor 1 receptor (Homo sapiens), sequence (P08069 31-736 limits assumed): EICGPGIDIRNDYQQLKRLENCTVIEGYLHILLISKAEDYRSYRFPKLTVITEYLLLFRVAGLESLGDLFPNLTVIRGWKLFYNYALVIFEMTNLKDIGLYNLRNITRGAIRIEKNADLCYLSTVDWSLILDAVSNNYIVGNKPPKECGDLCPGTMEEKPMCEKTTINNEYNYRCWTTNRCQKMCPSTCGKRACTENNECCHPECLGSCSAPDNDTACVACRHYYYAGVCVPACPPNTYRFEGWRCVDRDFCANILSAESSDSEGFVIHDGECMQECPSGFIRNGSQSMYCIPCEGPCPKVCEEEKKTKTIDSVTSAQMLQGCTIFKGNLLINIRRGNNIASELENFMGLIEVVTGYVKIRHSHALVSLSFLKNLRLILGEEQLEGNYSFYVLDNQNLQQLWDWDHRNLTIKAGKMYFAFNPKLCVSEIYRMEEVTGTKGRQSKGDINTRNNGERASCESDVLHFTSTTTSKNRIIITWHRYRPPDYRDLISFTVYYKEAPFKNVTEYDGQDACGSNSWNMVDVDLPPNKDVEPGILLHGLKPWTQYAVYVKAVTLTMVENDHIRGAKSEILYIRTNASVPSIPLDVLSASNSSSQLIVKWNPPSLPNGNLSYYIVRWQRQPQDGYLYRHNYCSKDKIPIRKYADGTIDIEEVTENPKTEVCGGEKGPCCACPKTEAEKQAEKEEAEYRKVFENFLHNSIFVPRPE
Insulin-like growth factor 1 receptor (Homo sapiens), sequence (P08069 741-1367 limits assumed): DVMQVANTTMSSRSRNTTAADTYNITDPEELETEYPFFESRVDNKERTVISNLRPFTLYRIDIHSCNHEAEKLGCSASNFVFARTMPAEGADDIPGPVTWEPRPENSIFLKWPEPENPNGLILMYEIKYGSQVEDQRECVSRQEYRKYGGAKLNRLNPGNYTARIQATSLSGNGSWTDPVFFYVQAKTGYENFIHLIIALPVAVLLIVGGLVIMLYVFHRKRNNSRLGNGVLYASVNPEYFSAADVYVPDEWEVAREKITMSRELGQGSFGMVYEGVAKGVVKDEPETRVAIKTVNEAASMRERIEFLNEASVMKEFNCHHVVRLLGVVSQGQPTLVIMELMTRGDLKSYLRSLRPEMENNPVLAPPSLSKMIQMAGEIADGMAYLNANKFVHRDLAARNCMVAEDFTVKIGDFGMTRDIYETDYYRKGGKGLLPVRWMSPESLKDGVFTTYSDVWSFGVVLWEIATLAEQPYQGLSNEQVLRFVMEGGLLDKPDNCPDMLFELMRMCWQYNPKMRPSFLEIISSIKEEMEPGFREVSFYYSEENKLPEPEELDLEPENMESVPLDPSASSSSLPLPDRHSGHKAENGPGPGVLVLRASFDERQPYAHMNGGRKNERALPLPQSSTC
Regarding `N[C@@H](CC(=O)O)C(=O)N[C@@H](Cc1ccc(O)cc1)C(=O)N[C@@H](Cc1ccccc1)C(=O)N[C@@H](CCC(=O)O)C(=O)O` (H-DYFE-OH), the outcome was inactive.

`N[C@@H](Cc1ccc(O)cc1)C(=O)N[C@@H](Cc1ccccc1)C(=O)N[C@@H](CCC(=O)O)C(=O)O` (H-Tyr-Phe-Glu-OH): the result was inactive.

Consider H-EQEDEPEGAYFEWLE-OH, for which the outcome was inactive.

Regarding H-EQEDEPEGDYFEALE-OH, the result was inactive.

With H-GEYVN-OH, the outcome was inactive.

Regarding H-KKKSPGEYVNAEFG-OH, the result was inactive.

On to H-KKKSPGEYVNIEAG-OH, for which the outcome was inactive.

Turning to H-KSPGEYVNIE-OH, the result was inactive.

Take H-PGEYVN-OH: the outcome was inactive.

Regarding H-PGEYVNI-OH, the outcome was inactive.

H-SPGEYVNI-OH: the outcome was inactive.

Regarding H-SPGEYVNIE-OH, the result was inactive.

The target of another experiment is Insulin receptor (Homo sapiens) (UniProt P06213). The experiment in a line: Activity of pre-activated human GST-His6-tagged InsR assessed as compound phosphorylation at 500 uM measured every 2 mins for 60 mins by ADP-Quest assay.
Insulin receptor (Homo sapiens), sequence (P06213 28-758 limits assumed): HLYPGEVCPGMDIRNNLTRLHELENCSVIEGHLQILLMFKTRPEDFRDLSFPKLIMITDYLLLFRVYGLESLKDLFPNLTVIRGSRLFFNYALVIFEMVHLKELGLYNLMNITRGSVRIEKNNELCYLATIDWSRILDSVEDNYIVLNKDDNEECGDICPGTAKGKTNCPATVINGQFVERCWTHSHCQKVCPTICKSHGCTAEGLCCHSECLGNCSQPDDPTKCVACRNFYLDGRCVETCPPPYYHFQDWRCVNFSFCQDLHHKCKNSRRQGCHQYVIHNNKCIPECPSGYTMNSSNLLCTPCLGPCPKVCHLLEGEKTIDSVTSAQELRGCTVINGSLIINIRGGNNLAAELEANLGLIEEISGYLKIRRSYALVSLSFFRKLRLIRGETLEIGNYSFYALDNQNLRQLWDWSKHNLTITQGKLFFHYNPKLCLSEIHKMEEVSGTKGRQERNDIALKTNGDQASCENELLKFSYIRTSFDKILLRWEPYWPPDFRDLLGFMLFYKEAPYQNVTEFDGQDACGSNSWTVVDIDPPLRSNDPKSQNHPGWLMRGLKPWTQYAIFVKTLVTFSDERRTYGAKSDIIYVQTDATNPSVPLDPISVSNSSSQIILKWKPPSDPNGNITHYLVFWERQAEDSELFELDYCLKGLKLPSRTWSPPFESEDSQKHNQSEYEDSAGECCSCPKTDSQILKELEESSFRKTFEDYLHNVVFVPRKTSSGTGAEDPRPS
Insulin receptor (Homo sapiens), sequence (P06213 763-1382 limits assumed): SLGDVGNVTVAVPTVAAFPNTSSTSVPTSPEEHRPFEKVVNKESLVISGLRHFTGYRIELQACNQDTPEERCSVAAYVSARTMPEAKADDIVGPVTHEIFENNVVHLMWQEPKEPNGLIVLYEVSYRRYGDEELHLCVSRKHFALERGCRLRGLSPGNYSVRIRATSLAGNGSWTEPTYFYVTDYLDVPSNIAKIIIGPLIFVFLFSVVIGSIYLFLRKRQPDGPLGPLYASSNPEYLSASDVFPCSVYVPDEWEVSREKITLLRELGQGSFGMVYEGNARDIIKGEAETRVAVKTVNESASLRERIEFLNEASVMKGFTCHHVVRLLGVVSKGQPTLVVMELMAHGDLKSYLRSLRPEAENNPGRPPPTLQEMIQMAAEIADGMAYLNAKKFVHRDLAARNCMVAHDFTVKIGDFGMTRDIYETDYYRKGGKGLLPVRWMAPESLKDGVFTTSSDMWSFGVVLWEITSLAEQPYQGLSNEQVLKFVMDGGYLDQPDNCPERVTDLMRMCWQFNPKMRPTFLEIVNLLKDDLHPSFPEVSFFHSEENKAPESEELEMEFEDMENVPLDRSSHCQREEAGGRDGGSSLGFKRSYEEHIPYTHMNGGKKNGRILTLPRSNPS
On to `N[C@@H](CC(=O)O)C(=O)N[C@@H](Cc1ccc(O)cc1)C(=O)N[C@@H](Cc1ccccc1)C(=O)N[C@@H](CCC(=O)O)C(=O)O` (H-DYFE-OH), for which the outcome was inactive.

Take `N[C@@H](Cc1ccc(O)cc1)C(=O)N[C@@H](Cc1ccccc1)C(=O)N[C@@H](CCC(=O)O)C(=O)O` (H-Tyr-Phe-Glu-OH): the outcome was inactive.

With `N[C@@H](Cc1ccc(O)cc1)C(=O)N[C@@H](Cc1ccccc1)C(=O)N[C@@H](CCC(=O)O)C(=O)N[C@@H](Cc1c[nH]c2ccccc12)C(=O)O` (H-YFEW-OH), the outcome was inactive.

For the compound H-EQEDEPEGAYFEWLE-OH, the outcome was inactive.

Turning to H-EQEDEPEGDYFEALE-OH, the result was inactive.

With H-GDYFE-OH, the outcome was inactive.

As to H-GEYVN-OH, the outcome was inactive.

For H-KKKSPGEYVNAEFG-OH, the outcome was inactive.

In the case of H-KKKSPGEYVNIEAG-OH, the outcome was inactive.

Turning to H-KSPGEYVNIE-OH, the result was inactive.

For H-PGEYVN-OH, the result was inactive.

On to H-PGEYVNI-OH, for which the outcome was inactive.

With H-SPGEYVNI-OH, the result was inactive.

Take H-SPGEYVNIE-OH: the result was inactive.
